According to US20120136005A1, “E[…] THE TREATMENT OF ANXIETY” (MERZ PHARMA GmbH & CO. KGaA, priority 2009, published 2012):
Entries after “also recorded” stand apart in the source; their conditions may differ.

Key:
[1] = biological target: T1, 5-HT2a recombinant receptor (Homo sapiens, UniProt P28223); assay: Aequorin cell line functional assay; type: cell-based; conditions: human recombinant cell lines; FIG. 1
T1 construct: expressed in transfected cells
Experimental: (§1) Aequorin cell lines expressing the 5-HT2a, 5-HT2b and 5-HT2c non-edited (ne) recombinant receptors were used to evaluate the functional activity of eltoprazine. Aequorin cells grown 18 h prior to the test in media without antibiotics were detached by gentle flushing with PBS-EDTA (5 mM EDTA), recovered by centrifugation and resuspended in “assay buffer” (DMEM/HAM's F12 with HEPES+0.1% BSA protease free). Cells were incubated at room temperature for at least 4 h with Coelenterazine h (Molecular Probes). The reference agonist used were 5-HT and α-methyl-5-HT. For agonist testing, 50 μl of cell suspension were injected on 50 μl of test compound or reference agonist plated in a 96-well plate. The resulting emission of light was recorded using the Hamamatsu Functional Drug Screening System 6000 (FDSS 6000).

[2] = biological target: T2, 5-HT2c non-edited (ne) recombinant receptor (Homo sapiens, UniProt P28335); assay: Aequorin cell line functional assay; type: cell-based; conditions: human recombinant cell lines; FIG. 1
T2 construct: expressed in transfected cells
T2 sequence (P28335 33-458): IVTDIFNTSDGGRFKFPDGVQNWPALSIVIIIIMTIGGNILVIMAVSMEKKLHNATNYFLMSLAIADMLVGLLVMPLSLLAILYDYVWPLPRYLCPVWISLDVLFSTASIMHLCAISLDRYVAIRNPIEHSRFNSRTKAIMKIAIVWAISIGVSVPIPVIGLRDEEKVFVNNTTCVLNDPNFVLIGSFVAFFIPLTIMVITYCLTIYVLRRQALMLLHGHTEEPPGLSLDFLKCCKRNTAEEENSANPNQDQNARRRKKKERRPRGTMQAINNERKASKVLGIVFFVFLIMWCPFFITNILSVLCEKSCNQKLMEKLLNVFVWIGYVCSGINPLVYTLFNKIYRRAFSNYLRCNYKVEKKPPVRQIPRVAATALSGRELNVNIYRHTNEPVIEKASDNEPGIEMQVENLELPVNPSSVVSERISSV
Experimental: as §1

[3] = system: Sprague-Dawley rats; assay: Elevated plus maze; type: in vivo; conditions: doses of 0.3125 and 1.25 mg/kg s.c.; FIG. 6
Experimental: For contextual fear conditioning, open field, fear potentiated startle and elevate plus maze, experimentally naive adult male Sprague-Dawley rats (250-300 g; Janvier, France) were housed in groups of four per cage. Colony room temperature and humidity were maintained respectively at 20±1° C. and 60±3%. Food and water were available ad libitum and the animals were kept under an alternating 12 h/12 h day-night cycle (lights on at 07.00) for at least 6 days before the experiments were started. All experiments were conducted during the light period of the day-night cycle. […]
The elevated plus maze, made from black polypropylene, consists of two open arms (50.8 cm×10.2 cm surrounded by 1.3 cm walls) and two enclosed arms (50.8×10.2 cm and 40.6 cm high walls), which extended form central platform (10.2×10.2 cm). […] Breaks of photo beam are recorded and analysed automatically using an IBM-PC running MED-PC software version IV (Med Associates). […] During the following 5 min period the number of entries into closed and open arms as well as time spent in each type of arm is recorded. An arm entry is recorded when all four paws entering the arm. The obtained results are expressed as mean±S.E.M. percent entries or percent time spent in open arms. […]
Percent of time spent in open arm are taken for statistical analysis. Data are analysed by one-way ANOVA followed by Dunnett's test.

[4] = system: 5-HT2c (initially designated 5-HT1c); conditions: Schipper et al. 1990; cited from earlier work
[5] = system: Sprague-Dawley rats; assay: Open field locomotor activity; type: in vivo
Experimental: For contextual fear conditioning, open field, fear potentiated startle and elevate plus maze, experimentally naive adult male Sprague-Dawley rats (250-300 g; Janvier, France) were housed in groups of four per cage. Colony room temperature and humidity were maintained respectively at 20±1° C. and 60±3%. Food and water were available ad libitum and the animals were kept under an alternating 12 h/12 h day-night cycle (lights on at 07.00) for at least 6 days before the experiments were started. All experiments were conducted during the light period of the day-night cycle. For the Vogel test, male experimentally naive Wistar rats (180-220 g, State Breeding Farm “Rappolovo”, St. Petersburg, Russia; N=109) were used. Each animal was used only once.
Eltoprazine hydrochloride was dissolved in sterile water. […]
Locomotor activity was measured in four perspex boxes (ENV-515-16, 43.2 cm×43.2 cm×30 cm) placed in a noise-proof chamber equipped with ventilator and a source of white light (5.6 W) placed 55 cm above floor. […] 4 arrays of 16 infrared photo beams placed 3 cm above the floor measured horizontal activity. […] The output from the counters was integrated and analysed on-line by an PC computer. […]
Total distance travelled during the 60 min was taken for statistical analysis. Data are analysed by one-way ANOVA followed by Dunnett's test.

[6] = biological target: 5-HT1b receptor (Rattus norvegicus, UniProt P28564); conditions: Schipper et al. 1990; cited from earlier work
5-HT1b receptor, sequence (P28564 whole entry): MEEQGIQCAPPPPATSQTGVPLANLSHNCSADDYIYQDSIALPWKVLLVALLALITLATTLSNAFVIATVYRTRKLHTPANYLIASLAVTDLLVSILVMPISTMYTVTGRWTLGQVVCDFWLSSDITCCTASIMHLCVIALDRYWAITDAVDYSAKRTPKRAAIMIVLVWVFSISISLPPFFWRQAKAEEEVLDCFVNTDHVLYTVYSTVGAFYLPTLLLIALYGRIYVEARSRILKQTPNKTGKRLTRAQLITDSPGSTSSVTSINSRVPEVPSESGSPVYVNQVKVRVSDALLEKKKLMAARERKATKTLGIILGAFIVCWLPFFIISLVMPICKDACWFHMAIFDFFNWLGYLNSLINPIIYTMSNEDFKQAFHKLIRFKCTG

T1 sequence (P28223 whole entry): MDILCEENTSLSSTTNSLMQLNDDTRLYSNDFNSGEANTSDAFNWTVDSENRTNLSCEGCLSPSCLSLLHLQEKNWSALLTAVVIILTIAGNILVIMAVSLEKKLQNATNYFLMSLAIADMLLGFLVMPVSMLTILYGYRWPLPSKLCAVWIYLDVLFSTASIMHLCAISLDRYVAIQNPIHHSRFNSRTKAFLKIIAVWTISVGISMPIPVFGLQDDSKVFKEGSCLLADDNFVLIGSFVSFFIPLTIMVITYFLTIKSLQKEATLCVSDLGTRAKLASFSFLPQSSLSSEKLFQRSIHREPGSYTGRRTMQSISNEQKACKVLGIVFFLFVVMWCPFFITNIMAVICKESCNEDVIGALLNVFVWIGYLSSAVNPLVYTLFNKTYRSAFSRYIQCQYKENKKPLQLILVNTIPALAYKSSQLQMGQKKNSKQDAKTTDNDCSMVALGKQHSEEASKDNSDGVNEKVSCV

Question: For `c1cc2c(c(N3CCNCC3)c1)OCCO2` [eltoprazine, 1-(2,3-dihydro-1,4-benzodioxin-5-yl)piperazine], which “functional activity at 5-HT2a receptor” value [1] is on record?
Answer: full agonist

Question: And the “functional activity at 5-HT2c receptor” value [2]?
Answer: full agonist

Question: What about the “time spent in the open arms of the elevated plus maze” value [3] of the same molecule?
Answer: reduced the time spent in the open arms; also recorded: anxiogenic-like effect

Question: What about the “effect on 5-HT2c” value [4] of the same molecule?
Answer: antagonistic

Question: And the “total distance travelled in the open field” value ([5]; 1.25 mg/kg s.c.)?
Answer: significantly increased

Question: And the “locomotor activity in the open field at anxiolytic doses” value ([5]; acute s.c., 60 min before the test, FIG. 5)?
Answer: not related to non-specific increase in locomotor activation

Question: What about the “effect on 5-HT1b receptor” value [6] of the same molecule?
Answer: agonistic effect
